Laboratory results published in article PMC12570502, “Kinetic characterization of RNA synthesis catalyzed by the model hyperthermophilic archaeon Thermococcus kodakarensis RNA polymerase” (mSphere, 2025).

Molecular target: T1, T. k. RNAP (Thermococcus kodakarensis RNA polymerase) (Thermococcus kodakarensis, UniProt Q5JE32+Q5JE33+Q5JE34)
T1 construct: gene rpo1N; assembled on synthetic RNA:DNA scaffold (EC+10); with DNA-directed RNA polymerase subunit Rpo3; DNA-directed RNA polymerase subunit Rpo4; DNA-directed RNA polymerase subunit Rpo5; DNA-directed RNA polymerase subunit Rpo6; DNA-directed RNA polymerase subunit Rpo7; DNA-directed RNA polymerase subunit Rpo10; DNA-directed RNA polymerase subunit Rpo11; DNA-directed RNA polymerase subunit Rpo12
Test: chemical quench-flow single-nucleotide addition, global fit (MENOTR)
Assay type: biochemical
Conditions: 25 °C, pH 8.39, Mg2+, heparin trap; elongation complex EC+10 on RNA:DNA scaffold; kinetic-model Kd with k1 fixed at 1 × 10^8 M^-1 s^-1; active site
Text: chemical quench-flow single-nucleotide addition, global fit (MENOTR) on T. k. RNAP (Thermococcus kodakarensis RNA polymerase)

Kd: 2.98 µM
Structure (SMILES): Nc1ncnc2c1ncn2[C@@H]1O[C@H](COP(=O)(O)OP(=O)(O)OP(=O)(O)O)[C@@H](O)[C@H]1O [ATP]
